# Assays:
# [1] = tested on: HIV-1 VSV-G pseudotype (NL4.3-luc) in MDM cells; type: cell-based
# [2] = tested on: HIV-1 VSV-G pseudotype (NL4.3-luc) in MDM cells; type: cell-based; remark: listed apart in the source
# [3] = tested on: HIV-1 VSV-G pseudotype (NL4.3-luc) in MDM cells; type: cell-based; remark: listed apart in the source
# [4] = tested on: HIV-1 VSV-G pseudotype (NL4.3-luc) in CD4 T cells; type: cell-based
# CD4 T cells = experiment: Flow-cytometry analysis of activation markers CD25 and CD69; type: cell-based, human; conditions: PHA treatment during three days before infection
molecule,measurement,setting,value
"CCCCCCCCCCCCCC(=O)O[C@@H]1[C@@H](C)[C@@]2(O)[C@@H](C=C(CO)C[C@]3(O)C(=O)C(C)=C[C@@H]23)[C@@H]2C(C)(C)[C@]12OC(C)=O [PMA, phorbol 12-myristate 13-acetate]",time after stimulation at which bioluminescence signal began to increase,[1],4 h
"O=C(O)C(=O)CC(=O)c1cccn1Cc1ccc(F)cc1 [L-731,988]",luciferase activity in cell lysates,[2],reduced in a dose-dependent manner
same,number of cells emitting bioluminescence,[3],reduction in the number of cells emitting bioluminescence
same,number of photons emitted per individual cell,[3],significant reduction in the number of photons emitted per individual cell
same,overall averaged bioluminescence intensity,[3],decreased
phytohemagglutinin [PHA],duration of increase of photon emission until stable plateau level,[4],4 h
same,positive lymphocytes (bioluminescence) in cells treated before infection,[4],abundant numbers of positive lymphocytes
same,time after mitogen stimulation at which photon emission began to be detected in formerly negative cells,[4],8 h
same,global activation of CD4 T cells,CD4 T cells,> 98%
